Legend:
[1] = test system: rats; assay: Olfactory fear conditioning; format: in vivo; conditions: Experiment 3, FIG. 36, 1 ng CBD, 0.25 nmol omega-3
Excerpt: The olfactory fear conditioning protocol is for measurement of the formation of fear memory. This protocol lasts three days. On day 1, the rat is habituated to two boxes (one with a striped background and one with a polka dot back ground).
On day 2, the rat receives a drug infusion and is placed into one of the boxes (previously assigned as the “shock box”). While in the box, the rat is exposed to 2 odours (peppermint and almond). The rat is exposed to one odour followed by the other odour 5 times. One of these odours were previously assigned as the “shock” odour (CS+) such that after exposure to the “shock” odour, the rat would receive a foot shock. There was no foot shock following exposure to the “safe” odour (CS−). On day 3, the rat was placed in the safe box. They were exposed to each odour (both CS+ and CS−) one at a time for 5 minutes. During the 5 minutes, freezing behaviour was recorded.
It would be expected that CBD would block the formation of fear memory and the rats would freeze a similar amount to CS+ and CS−.
2-way repeated measures ANOVA was performed for the three experiments. With reference to FIG. 34, there was no significant interaction effect by group x CS (p=0.209).

[2] = test system: rats; assay: Light dark box; format: in vivo; conditions: for time to make the second transition back into the light box: Experiment 1, FIG. 16, 100 ng T007
Experimental: In these experiments, the following was measured: • 1. First transition to the dark box • 2. Second transition to the light box • 3. Total number of transitions • 4. Time spent in the light box
One half of the box is open at the top and is brightly lit. There is an opening to the dark-box that is covered by a lid.
Rats would prefer to be in the dark box and would be anxious about going into the light box.
Following the infusion, the rate is placed in the light box facing away from the opening to the dark box. A 10 minute recording is made. During these 10 minutes, measurements are made of four things: • 1. The time it takes for the rat to make the first transition into the dark box • 2. The time it takes for the rat to make the second transition from the dark box back into the light box • 3. Number of transitions between boxes • 4. Time spent in light box
Therefore, it would be expected than less anxious rats would take a longer time to make the first transition into the dark box, spend less time to make the second transition into the light box, make more transitions between boxes, and spend more time in the light box.

[3] = test system: dopamine neurons in the ventral tegmental area (VTA); assay: Electrophysiology: VTA dopamine neuron recording after intra-NAc infusion; format: in vivo, rats
Experimental: Three experiments were run of this type. All included a vehicle. In addition, the components were as follows: • Experiment 1: • 100 ng CBD; 100 ng CBD+100 ng T007; 100 ng T007 • Experiment 2: • 50 ng CBD; 0.5 nmol n−3; 50 ng CBD+0.5 nmol n−3 • Experiment 3: • 1 ng CBD; 0.25 nmol n−3; 1 ng CBD+0.25 nmol n−3; 1 ng CBD+0.25 nmol n−3+100 ng T007 • In the above: • CBD=cannabidiol • T007=T0070907 (PPARg antagonist) • n−3=omega-3
The omega-3 formulation includes equal amounts of DHA and EPA. Two doses were used in this study. 0.5 nmol n−3 is made up of 0.5 nmol DHA and 0.5 nmol EPA. 0.25 nmol n−3 is made up of 0.25 nmol DHA and 0.25 nmol EPA.
In this procedure, rats were anesthetized with urethane. An electrode was used to record the baseline frequency of dopamine neurons in the ventral tegmental area (VTA) for 5 minutes. After the baseline recording, combinations of CBD, omega-3, and T007 (a PPARg antagonist) were infused into the nucleus accumbens (NAc).
The post-infusion frequency of that neuron was compared to its pre-infusion frequencies.
One of the characteristics of dopamine cells is that they have a tonic mode of firing and a burst mode of firing. Therefore, both the frequency and burst changes following infusions were analyzed. FIG. 1 looks at the frequency of VTA dopamine cells. The Y-axis is frequency (% Baseline). […] This means that after an intra-NAc infusion of 100 ng CBD, the dopamine cell would decrease in frequency about 15%.
FIG. 2 looking at difference in burst percentage. A burst is a group of signals occurring in a short period of time. Specifically, in this experiment, a burst is defined to be an event where 2 spikes occur within a timespan of 80 ms. […] As such, the number of bursts that occurred during pre-infusion was recording and the number of spikes that occurred in those bursts was determined. The number of those spikes occurring in those bursts was divided by the total number of spikes that occurred during the pre-infusion recording The same was done for the post-infusion recording and the difference between these 2 values was determined.

[4] = test system: rats; assay: Elevated plus maze; format: in vivo; conditions: intra-NAc; for number of entries into the open arms: Experiment 3, FIG. 13
Experimental: In these experiments, the following was measured: • 1. Time in open arms • 2. Entries into open arms
In these experiments, the apparatus of FIG. 7 was used.
As shown, the apparatus includes 2 open arms and 2 closed arms that form a plus shape. Rats feel more secure in closed spaces and thus it would be expected that more anxious rats would spend more time in the closed arms and less time on the open arms.
Before each test, the same doses of drugs used in the electrophysiology experiments were infused.
The rat was then placed in the middle of the apparatus, facing into the closed arms and recorded for 10 minutes.
The number of entries into the open arms and the total time spent in the open arms was recorded. Less anxious rats would be expected to make more entries into the open arms and spend more time there as well.

[5] = 100 ng CBD, 100 ng CBD+100 ng T007
[6] = Experiment 3, FIG. 24, 1 ng CBD, 0.25 nmol omega-3, combination, combination+100 ng T007
[7] = first experiment, FIG. 17, 100 ng CBD, 100 ng CBD+100 ng T007
[8] = first experiment, FIG. 18, 100 ng CBD, 100 ng CBD+100 ng T007
[9] = Experiment 3, FIG. 5, 1 ng CBD, 0.25 nmol omega-3, 1 ng CBD+0.25 nmol omega-3, combination+100 ng T007, intra-NAc, compared to vehicle
[10] = Experiment 3, FIG. 12, 1 ng CBD, 0.25 nmol omega-3, combination, combination+100 ng T007
[11] = 1 ng CBD, 0.25 nmol omega-3, combination, combination+100 ng T007

SMILES | time to make the second transition back into the light box [2, 5] | time to make the second transition [2, 6] | number of transitions between boxes [2, 7] | time spent in the light box [2, 8] | VTA dopamine activity [3, 9] | time spent in open arms [4, 10] | number of entries into the open arms [4, 11] | also measured
C=C(C)[C@@H]1CCC(C)=C[C@H]1c1c(O)cc(CCCCC)cc1O [CBD, cannabidiol] | significantly decreased | ineffective | significantly increased | significantly increased | not different from vehicle | ineffective | not effective | freezing time compared to vehicle ([1]; 1 ng CBD+0.25 nmol omega-3): not different from vehicle; time to make the second transition ([2]; Experiment 2, FIG. 20, 50 ng CBD, 0.5 nmol omega-3, 50 ng CBD+0.5 nmol omega-3): not effective; number of transitions between boxes ([2]; Experiment 3, FIG. 25, 1 ng CBD, 0.25 nmol omega-3, 1 ng CBD+0.25 nmol omega-3): ineffective; time spent in the light box ([2]; Experiment 3, FIG. 26, 1 ng CBD, 0.25 nmol omega-3, 1 ng CBD+0.25 nmol omega-3): ineffective; frequency (% Baseline) of VTA dopamine cells ([3]; Experiment 1, FIG. 1, 100 ng CBD intra-NAc infusion, post- vs pre-infusion): about 85%; VTA dopamine frequency ([3]; Experiment 1, FIG. 1, 100 ng CBD, 100 ng CBD+100 ng T007, 100 ng T007, intra-NAc): decreasing trend; decrease in frequency of the dopamine cell ([3]; Experiment 1, FIG. 1, after intra-NAc infusion of 100 ng CBD): about 15%; difference in burst percentage (VTA DA bursts) ([3]; Experiment 1, FIG. 2, 100 ng CBD, 100 ng CBD+100 ng T007, 100 ng T007, intra-NAc): very slight decrease; VTA dopamine activity ([3]; Experiment 2, FIG. 3, 50 ng CBD, 0.5 nmol omega-3, 50 ng CBD+0.5 nmol omega-3, intra-NAc): ineffective; time spent in open arms ([4]; Experiment 1, FIG. 8, 100 ng CBD, 100 ng CBD+100 ng T007, 100 ng T007, 10 minutes): slight increase; number of entries into open arms ([4]; Experiment 1, FIG. 9, 100 ng CBD, 100 ng CBD+100 ng T007, 100 ng T007, 10 minutes): slight increase; time spent in open arms ([4]; Experiment 2, FIG. 10, 50 ng CBD, 0.5 nmol omega-3, 50 ng CBD+0.5 nmol omega-3): not effective; number of entries into open arms ([4]; Experiment 2, FIG. 11, 50 ng CBD, 0.5 nmol omega-3, 50 ng CBD+0.5 nmol omega-3): not effective
O=C(Nc1ccncc1)c1cc([N+](=O)[O-])ccc1Cl [T007] | blocked | blocked | blocked | blocked | blocked | blocked | blocked | difference between the freezing time to CS+ and CS− (fear memory formation) ([1]; combination, combination+100 ng T007): blocked slightly
